Results reported in patent US10329242B2, “Process for purifying long chain amino acids” (VITAWORKS IP, LLC, priority 2017, dated 2019).
Counter-ions that a name gives are not always drawn.

Columns and labels:
[1] = Solubility in water and aqueous solution of acetic acid; type: physicochemical; settings: aqueous solution of 10% (wt/wt) acetic acid at 80° C.
[2] = Solubility of bisulfate salts in 1 M solution of sulfuric acid; type: physicochemical; settings: for solubility: temperature below 40° C.; for solubility change with temperature: temperature increased from 60° C. to 80° C. and above

Row | Compound | solubility [1] | solubility [2] | solubility change with temperature [2]
1 | NCCCCCCCCCCC(=O)O [11-aminoundecanoic acid] | up to 45 % (wt/wt) | negligible solubility | drastically increased
2 | NCCCCCCCCCCCC(=O)O [bisulfate salt of 12-aminolauric acid, 12-aminolauric acid] | – | negligible solubility | drastically increased
